Tests used:
DGKζ = DGKζ (Homo sapiens (Human), UniProt Q13574); experiment: In vitro DGKζ inhibition assay (ADP-Glo); format: biochemical; conditions: His-tagged human recombinant enzyme, 0.4 nM DGK, 30 μM ATP, 20 μM DLG, 90 minute incubation
Protocol: (§1) The DGKα and DGKξ biochemical reactions were performed using His-tagged human recombinant enzymes (Signal Chem, DGKα, #D21-1OBH; DGKξ, #D30-10H)) and DLG (Dilauroyl-sn-glycerol) lipid substrate (Signal Chem, #D430-59). ADP-Glo assay was performed using ADP-Glog™ kinase Assay kit (Promega, #V9104). The reactions were carried out in assay buffer containing 40 mM Tris, pH 7.5, 0.1% CHAPS, 0.1% Prionex, 40 mM NaCl, 5 mM MgCl2, 1 mM CaCl2, and 1 mM DTT. DGKα reactions contained 0.1 nM DGKα, 50 μM ATP, and 20 μM DLG. And DGKC reactions contained 0.4 nM DGK, 30 μM ATP, and 20 μM DLG.
(§2) For compound inhibition studies, 40 nL test compound in DMSO was added to wells of white polystyrene plates in 384-well (Greiner, #784075) or 1536-well format (Greiner, #782075). Compounds were added with top concentration of 2 mM with 11 point, 3-fold dilution series. Enzyme solution (contains 2×DGK enzyme concentration in Ix assay buffer) was added to the plate in 2 μL/well volume, followed by 2 μL/well of substrate solution (contains 2×concentration of ATP and DLG substrate in Ix assay buffer). Plates were then centrifuged for 1 min at 1200 RPM and sealed or lidded. For 4 μL reaction volume, test compounds were therefore diluted 100× to final top concentration of 20 μM. After 90 minute incubation, reactions were quenched by addition of 2 μL/well Promega ADP-Glo Reagent, followed by centrifugation and lidding. After 60 min incubation, 2 μL/well Promega Kinase Detection Reagent was added, plates centrifuged, and incubated for 30 min. Plates were then read using Luminescence method on BMG PHERAstar FSX plate reader. Percent inhibition was calculated and IC50s were determined using 4-parameter fit in Genedata Screener. Labcyte Echo acoustic dispenser was used for compound addition, and Formulatrix Tempest liquid handler was used for all reagent dispenses.

DGKα = DGKα (Homo sapiens (Human), UniProt P23743); experiment: In vitro DGKα inhibition assay (ADP-Glo); format: biochemical; conditions: His-tagged human recombinant enzyme, 0.1 nM DGKα, 50 μM ATP, 20 μM DLG, 90 minute incubation
DGKα, sequence (P23743 whole entry): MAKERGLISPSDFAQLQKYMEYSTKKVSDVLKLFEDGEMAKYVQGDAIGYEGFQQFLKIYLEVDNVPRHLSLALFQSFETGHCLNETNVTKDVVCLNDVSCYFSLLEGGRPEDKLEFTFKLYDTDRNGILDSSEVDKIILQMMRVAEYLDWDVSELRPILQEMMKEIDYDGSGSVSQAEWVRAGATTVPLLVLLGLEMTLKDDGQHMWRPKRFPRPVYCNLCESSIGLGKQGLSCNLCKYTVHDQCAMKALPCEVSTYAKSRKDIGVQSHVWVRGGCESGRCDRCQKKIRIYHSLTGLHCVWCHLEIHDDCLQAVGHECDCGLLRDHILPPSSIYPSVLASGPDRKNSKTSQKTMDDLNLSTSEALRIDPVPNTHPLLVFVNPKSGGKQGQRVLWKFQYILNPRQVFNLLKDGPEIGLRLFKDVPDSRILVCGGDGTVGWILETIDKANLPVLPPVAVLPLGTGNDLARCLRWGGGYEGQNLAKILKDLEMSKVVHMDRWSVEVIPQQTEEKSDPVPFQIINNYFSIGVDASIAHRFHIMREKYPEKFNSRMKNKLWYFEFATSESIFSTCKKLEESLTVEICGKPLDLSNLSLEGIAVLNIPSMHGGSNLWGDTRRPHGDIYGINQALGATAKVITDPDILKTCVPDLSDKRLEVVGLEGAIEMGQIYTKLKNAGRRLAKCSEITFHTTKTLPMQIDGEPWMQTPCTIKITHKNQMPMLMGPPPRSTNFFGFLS
Protocol: as §1, §2

DGKζ, sequence (Q13574 whole entry): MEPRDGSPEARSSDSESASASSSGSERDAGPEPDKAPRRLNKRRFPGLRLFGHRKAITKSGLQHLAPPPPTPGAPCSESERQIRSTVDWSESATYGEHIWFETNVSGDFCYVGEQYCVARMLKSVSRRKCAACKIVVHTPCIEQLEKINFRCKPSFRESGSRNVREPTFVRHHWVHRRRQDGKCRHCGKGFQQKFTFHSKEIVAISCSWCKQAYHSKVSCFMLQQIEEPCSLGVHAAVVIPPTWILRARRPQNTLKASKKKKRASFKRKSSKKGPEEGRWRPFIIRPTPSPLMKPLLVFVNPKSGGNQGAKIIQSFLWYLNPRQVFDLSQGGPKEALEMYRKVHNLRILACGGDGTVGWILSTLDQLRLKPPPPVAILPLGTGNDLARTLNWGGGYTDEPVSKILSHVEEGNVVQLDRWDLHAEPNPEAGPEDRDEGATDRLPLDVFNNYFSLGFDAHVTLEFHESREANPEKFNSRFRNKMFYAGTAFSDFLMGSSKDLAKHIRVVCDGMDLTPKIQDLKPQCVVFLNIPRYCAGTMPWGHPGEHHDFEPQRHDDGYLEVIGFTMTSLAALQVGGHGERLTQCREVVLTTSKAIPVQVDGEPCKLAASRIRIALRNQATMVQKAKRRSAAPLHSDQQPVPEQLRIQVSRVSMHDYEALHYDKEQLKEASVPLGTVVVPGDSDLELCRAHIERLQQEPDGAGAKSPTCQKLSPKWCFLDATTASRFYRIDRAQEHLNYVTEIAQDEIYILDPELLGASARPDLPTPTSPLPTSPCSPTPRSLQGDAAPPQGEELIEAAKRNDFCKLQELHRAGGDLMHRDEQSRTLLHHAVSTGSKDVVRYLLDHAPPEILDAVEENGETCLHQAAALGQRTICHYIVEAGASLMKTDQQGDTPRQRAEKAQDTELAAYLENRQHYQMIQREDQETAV

C[C@@H]1CN(c2nc3nncn3c3c2ncn3CCN(C)C)[C@@H](C)CN1[C@@H](c1ccc(C(F)(F)F)cc1)c1ccc(C(F)(F)F)cn1 [Example 101, 2-(4-((2S,5R)-2,5-Dimethyl-4-((S)-(4-(trifluoromethyl)phenyl)(5-(trifluoromethyl)pyridin-2-yl)methyl)piperazin-1-yl)-1H-[1,2,4]triazolo[3,4-b]purin-1-yl)-N,N-dimethylethan-1-amine]
IC50 (DGKζ): ≤ 20 nM
IC50 (DGKα): ≤ 20 nM

Cc1nc2c(N3C[C@@H](C)N([C@H](c4ccc(Br)cc4)C(C)C)C[C@@H]3C)nc3nncn3c2n1C[C@@H]1CCCO1 [Example 138, 4-((2S,5R)-4-((S)-1-(4-Bromophenyl)-2-methylpropyl)-2,5-dimethylpiperazin-1-yl)-2-methyl-1-(((S)-tetrahydrofuran-2-yl)methyl)-1H-[1,2,4]triazolo[3,4-b]purine]
IC50 (DGKζ): ≤ 20 nM
IC50 (DGKα): ≤ 20 nM

Cc1nnc2nc(N3C[C@@H](C)N(C(c4ccc(F)cc4)c4ccc(F)cc4)C[C@@H]3C)c3ncsc3n12 [Example 2, 4-((2S,5R)-4-(Bis(4-fluorophenyl)methyl)-2,5-dimethylpiperazin-1-yl)-8-methylthiazolo[4,5-e][1,2,4]triazolo[4,3-a]pyrimidine]
IC50 (DGKζ): 200 to 2000 nM
IC50 (DGKα): ≤ 20 nM

C[C@@H]1CN(c2nc3nncn3c3c2ncn3CC2CC2)[C@@H](C)CN1[C@H](c1ccc(F)cc1)c1ccc(OC(F)(F)F)cn1 [Example 25, 1-(cyclopropylmethyl)-4-((2S,5R)-4-((R)-(4-fluorophenyl)(5-(trifluoromethoxy)pyridin-2-yl)methyl)-2,5-dimethylpiperazin-1-yl)-1H-[1,2,4]triazolo[3,4-b]purine]
IC50 (DGKζ): 20 to 200 nM
IC50 (DGKα): ≤ 20 nM

C[C@@H]1CN(c2nc3nncn3c3sc(C(F)F)nc23)[C@@H](C)CN1C(c1ccc(F)cc1)c1ccc(F)cc1 [Example 3, 4-((2S,5R)-4-(Bis(4-fluorophenyl)methyl)-2,5-dimethylpiperazin-1-yl)-2-(difluoromethyl)thiazolo[4,5-e][1,2,4]triazolo[4,3-a]pyrimidine]
IC50 (DGKζ): 200 to 2000 nM
IC50 (DGKα): ≤ 20 nM

CC[C@@H]1CN(c2nc3nncn3c3c2ncn3CCN(C)C)[C@@H](C)CN1C(c1ccc(F)cc1)c1ccc(F)cc1 [Example 37, 2-(4-((2S,5R)-4-(Bis(4-fluorophenyl)methyl)-5-ethyl-2-methylpiperazin-1-yl)-1H-[1,2,4]triazolo[3,4-b]purin-1-yl)-N,N-dimethylethan-1-amine]
IC50 (DGKζ): ≤ 20 nM
IC50 (DGKα): ≤ 20 nM

Cc1nc2c(N3C[C@@H](C)N(C(c4ccc(Br)cc4)c4ccc(F)c(Cl)c4)C[C@@H]3C)nc3nncn3c2n1C[C@@H]1CCCO1 (single isomer, unassigned) [Example 141]
IC50 (DGKζ): ≤ 20 nM
IC50 (DGKα): ≤ 20 nM

[2H]c1nc2c(N3C[C@@H](CC)N(C(c4ccc(F)cc4)c4ccc(F)cc4)C[C@@H]3CC)nc3nncn3c2n1CCN(C)C [Example 36, 2-(4-((2S,5R)-4-(Bis(4-fluorophenyl)methyl)-2,5-diethylpiperazin-1-yl)-1H-[1,2,4]triazolo[3,4-b]purin-1-yl-2-d)-N,N-dimethylethan-1-amine]
IC50 (DGKζ): ≤ 20 nM
IC50 (DGKα): ≤ 20 nM

CC(C)[C@H](c1ccc(Cl)cc1)N1C[C@H](C)N(c2nc3nncn3c3c2ncn3CCN(C)C)C[C@H]1C [Example 91, 2-(4-((2S,5R)-4-((R)-1-(4-chlorophenyl)-2-methylpropyl)-2,5-dimethylpiperazin-1-yl)-1H-[1,2,4]triazolo[3,4-b]purin-1-yl)-N,N-dimethylethan-1-amine]
IC50 (DGKζ): 20 to 200 nM
IC50 (DGKα): ≤ 20 nM

CC(C)[C@@H](c1ccc(F)cc1)N1C[C@H](C)N(c2nc3nncn3c3c2ncn3CC2CC2)C[C@H]1C [Example 22, 1-(Cyclopropylmethyl)-4-((2S,5R)-4-((S)-1-(4-fluorophenyl)-2-methylpropyl)-2,5-dimethylpiperazin-1-yl)-1H-[1,2,4]triazolo[3,4-b]purine]
IC50 (DGKζ): ≤ 20 nM
IC50 (DGKα): ≤ 20 nM

C[C@@H]1CN(c2nc3nncn3c3scnc23)[C@@H](C)CN1C(c1ccc(F)cc1)c1ccc(F)cc1 [Example 1, 4-((2S,5R)-4-(Bis(4-fluorophenyl)methyl)-2,5-dimethylpiperazin-1-yl)thiazolo[4,5-e][1,2,4]triazolo[4,3-a]pyrimidine]
IC50 (DGKζ): 20 to 200 nM
IC50 (DGKα): ≤ 20 nM

COc1ccc([C@@H](C(C)C)N2C[C@H](C)N(c3nc4nncn4c4c3nc(C)n4C[C@@H]3CCCO3)C[C@H]2C)cc1 [Example 78, 4-((2S,5R)-4-((R)-1-(4-methoxyphenyl)-2-methylpropyl)-2,5-dimethylpiperazin-1-yl)-2-methyl-1-(((S)-tetrahydrofuran-2-yl)methyl)-1H-[1,2,4]triazolo[3,4-b]purine]
IC50 (DGKζ): ≤ 20 nM
IC50 (DGKα): ≤ 20 nM

COc1cccc([C@@H](C(C)C)N2C[C@H](C)N(c3nc4nncn4c4c3nc(C)n4C[C@@H]3CCCO3)C[C@H]2C)c1 [Example 99, 4-((2S,5R)-4-((R)-1-(3-methoxyphenyl)-2-methylpropyl)-2,5-dimethylpiperazin-1-yl)-2-methyl-1-(((S)-tetrahydrofuran-2-yl)methyl)-1H-[1,2,4]triazolo[3,4-b]purine]
IC50 (DGKζ): ≤ 20 nM
IC50 (DGKα): ≤ 20 nM

C[C@H]1CN(C(c2ccc(F)cc2)c2ccc(F)cc2)[C@H](CC#N)CN1c1nc2nncn2c2scnc12 [Example 14, 2-((2R,5S)-1-(Bis(4-fluorophenyl)methyl)-5-methyl-4-(thiazolo[4,5-e][1,2,4]triazolo[4,3-a]pyrimidin-4-yl)piperazin-2-yl)acetonitrile]
IC50 (DGKζ): ≤ 20 nM
IC50 (DGKα): ≤ 20 nM

CC[C@@H]1CN(c2nc3nncn3c3c2nc(C)n3C[C@@H]2CCCO2)[C@@H](C)CN1C(c1ccc(F)cc1)c1ccc(C#N)cc1 (stereo partly drawn) [Example 133, 4-(((2R,5S)-2-Ethyl-5-methyl-4-(2-methyl-1-(((S)-tetrahydrofuran-2-yl)methyl)-1H-[1,2,4]triazolo[3,4-b]purin-4-yl)piperazin-1-yl)(4-fluorophenyl)methyl)benzonitrile]
IC50 (DGKζ): ≤ 20 nM
IC50 (DGKα): ≤ 20 nM

Cc1nc2c(N3C[C@@H](C)N([C@@H](c4cccc(C(F)(F)F)c4)C(C)C)C[C@@H]3C)nc3nncn3c2n1C[C@@H]1CCCO1 [Example 70, 4-((2S,5R)-2,5-dimethyl-4-((R)-2-methyl-1-(3-(trifluoromethyl)phenyl)propyl)piperazin-1-yl)-2-methyl-1-(((S)-tetrahydrofuran-2-yl)methyl)-1H-[1,2,4]triazolo[3,4-b]purine]
IC50 (DGKζ): ≤ 20 nM
IC50 (DGKα): ≤ 20 nM

Cc1nc2c(N3C[C@@H](C)N([C@H](c4cccc(C(F)(F)F)c4)C(C)C)C[C@@H]3C)nc3nncn3c2n1C[C@@H]1CCCO1 [Example 69, 4-((2S,5R)-2,5-Dimethyl-4-((S)-2-methyl-1-(3-(trifluoromethyl)phenyl)propyl)piperazin-1-yl)-2-methyl-1-(((S)-tetrahydrofuran-2-yl)methyl)-1H-[1,2,4]triazolo[3,4-b]purine]
IC50 (DGKζ): ≤ 20 nM
IC50 (DGKα): ≤ 20 nM

C[C@@H]1CN(c2nc3nncn3c3c2ncn3CCN(C)C)[C@@H](C)CN1C(c1ccc(Cl)c(F)c1)C1CC(F)(F)C1 (stereo partly drawn) [Example 136, 2-(4-((2S,5R)-4-((4-Chloro-3-fluorophenyl)(3,3-difluorocyclobutyl)methyl)-2,5-dimethylpiperazin-1-yl)-1H-[1,2,4]triazolo[3,4-b]purin-1-yl)-N,N-dimethylethan-1-amine]
IC50 (DGKζ): ≤ 20 nM
IC50 (DGKα): ≤ 20 nM

Cc1nc2c(N3C[C@@H](C)N([C@H](c4ccc(OC(F)(F)F)cc4)C(C)C)C[C@@H]3C)nc3nncn3c2n1C[C@@H]1CCCO1 [Example 118, 4-((2S,5R)-2,5-Dimethyl-4-((S)-2-methyl-1-(4-(trifluoromethoxy)phenyl)propyl)piperazin-1-yl)-2-methyl-1-(((S)-tetrahydrofuran-2-yl)methyl)-1H-[1,2,4]triazolo[3,4-b]purine]
IC50 (DGKζ): ≤ 20 nM
IC50 (DGKα): ≤ 20 nM

Cc1nc2c(N3C[C@@H](C)N([C@@H](c4ccc(OC(F)(F)F)cc4)C(C)C)C[C@@H]3C)nc3nncn3c2n1C[C@@H]1CCCO1 [Example 119, 4-((2S,5R)-2,5-dimethyl-4-((R)-2-methyl-1-(4-(trifluoromethoxy)phenyl)propyl)piperazin-1-yl)-2-methyl-1-(((S)-tetrahydrofuran-2-yl)methyl)-1H-[1,2,4]triazolo[3,4-b]purine]
IC50 (DGKζ): ≤ 20 nM
IC50 (DGKα): ≤ 20 nM

Cc1nc2c(N3C[C@@H](C)N([C@H](c4cccc(F)c4)C(C)C)C[C@@H]3C)nc3nncn3c2n1C[C@@H]1CCCO1 [Example 94, 4-((2S,5R)-4-((S)-1-(3-Fluorophenyl)-2-methylpropyl)-2,5-dimethylpiperazin-1-yl)-2-methyl-1-(((S)-tetrahydrofuran-2-yl)methyl)-1H-[1,2,4]triazolo[3,4-b]purine]
IC50 (DGKζ): ≤ 20 nM
IC50 (DGKα): ≤ 20 nM

Source: patent publication US20230399342A1 (Incyte Corporation, priority 2022, published 2023)
